# Target: T1, CK1α (Homo sapiens, UniProt P48729+Q96SW2)
# T1 construct: HEK293 clonal lines with CRISPR KI HiBiT tag on CSNK1A1; host or cells: HEK293 clonal line, CRISPR knock-in HiBiT at the CSNK1A1 locus, stably expressing LgBiT
# Test: Western blot of CK1α levels in cereblon (CRBN) knock-out HEK293 cell line
# Format: cell-based
# Conditions: 0.1, 1, 10 μM, 24 hours
# Protocol: FIG. 1 depicts effects of compound 101 on CK1α levels in an HEK293 cell line in comparison to effects of compound 101 on CK1α levels in a cereblon (CRBN) knock-out HEK293 cell line.
# HEK293 cell line is purchased from ATCC (CRL-1573). HEK293 CRBN knock out (k/o) cell line (B2) is generated internally using CRISPR/Cas9 method and clonally expanded. Cells are plated at 2×10^5 cells per well in 6-well tissue culture plates (VWR) in 2 ml of DMEM media (Gibco) containing 10% FBS (Gibco), and incubated for 16 hours at 37° C., 5% CO2. Compounds are added to final concentration of 0.1 μM, 1 μM, 10 μM (DMSO concentration is kept constant at 0.1%), following incubation at 37° C., 5% CO2 for additional 24 hours. Cell lysis is performed using RIPA buffer (Pierce) containing Halt™ Protease Inhibitor Cocktail (ThermoFisher Scientific). Lysates are boiled at 95° C. for 10 minutes and 12 μg of protein lysate per sample is resolved by SDS-PAGE using 12% gels (BioRad) and transferred to nitrocellulose membrane (BioRad). Membranes are blocked using LI-COR blocking buffer (LI-COR) at room temperature for 1 hour, followed by overnight incubation with rabbit anti-CK1α (Abcam ab206652), rabbit anti-CRBN (Sigma HPA045910) and mouse anti-α-tubulin (Sigma T9026) antibodies at 4° C. Secondary antibodies (LI-COR) are added for a hour at room temperature, followed by imaging with LI-COR imaging system Odyssey® CLx.
# T1 sequence (P48729 whole entry): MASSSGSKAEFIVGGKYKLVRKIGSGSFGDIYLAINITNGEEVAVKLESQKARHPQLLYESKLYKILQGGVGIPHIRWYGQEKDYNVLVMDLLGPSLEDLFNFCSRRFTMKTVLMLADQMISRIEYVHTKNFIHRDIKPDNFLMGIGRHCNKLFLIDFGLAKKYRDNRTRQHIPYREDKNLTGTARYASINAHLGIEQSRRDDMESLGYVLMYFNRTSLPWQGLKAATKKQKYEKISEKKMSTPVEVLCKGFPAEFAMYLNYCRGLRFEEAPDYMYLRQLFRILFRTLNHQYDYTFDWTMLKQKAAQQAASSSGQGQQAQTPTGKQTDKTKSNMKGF
# T1 sequence (Q96SW2 whole entry): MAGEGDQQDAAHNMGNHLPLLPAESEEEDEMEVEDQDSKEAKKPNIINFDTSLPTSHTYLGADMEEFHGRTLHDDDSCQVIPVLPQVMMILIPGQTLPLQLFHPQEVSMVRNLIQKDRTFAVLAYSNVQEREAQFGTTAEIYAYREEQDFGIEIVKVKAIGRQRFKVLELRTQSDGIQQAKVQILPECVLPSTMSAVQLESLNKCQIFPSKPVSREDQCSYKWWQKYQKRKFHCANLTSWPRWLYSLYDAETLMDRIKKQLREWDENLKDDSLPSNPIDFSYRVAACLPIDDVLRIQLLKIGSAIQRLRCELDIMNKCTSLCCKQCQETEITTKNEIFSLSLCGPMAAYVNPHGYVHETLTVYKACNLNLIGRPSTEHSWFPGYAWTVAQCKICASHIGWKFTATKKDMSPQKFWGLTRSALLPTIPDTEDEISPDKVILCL
# T1 sequence (Q16531 whole entry partner): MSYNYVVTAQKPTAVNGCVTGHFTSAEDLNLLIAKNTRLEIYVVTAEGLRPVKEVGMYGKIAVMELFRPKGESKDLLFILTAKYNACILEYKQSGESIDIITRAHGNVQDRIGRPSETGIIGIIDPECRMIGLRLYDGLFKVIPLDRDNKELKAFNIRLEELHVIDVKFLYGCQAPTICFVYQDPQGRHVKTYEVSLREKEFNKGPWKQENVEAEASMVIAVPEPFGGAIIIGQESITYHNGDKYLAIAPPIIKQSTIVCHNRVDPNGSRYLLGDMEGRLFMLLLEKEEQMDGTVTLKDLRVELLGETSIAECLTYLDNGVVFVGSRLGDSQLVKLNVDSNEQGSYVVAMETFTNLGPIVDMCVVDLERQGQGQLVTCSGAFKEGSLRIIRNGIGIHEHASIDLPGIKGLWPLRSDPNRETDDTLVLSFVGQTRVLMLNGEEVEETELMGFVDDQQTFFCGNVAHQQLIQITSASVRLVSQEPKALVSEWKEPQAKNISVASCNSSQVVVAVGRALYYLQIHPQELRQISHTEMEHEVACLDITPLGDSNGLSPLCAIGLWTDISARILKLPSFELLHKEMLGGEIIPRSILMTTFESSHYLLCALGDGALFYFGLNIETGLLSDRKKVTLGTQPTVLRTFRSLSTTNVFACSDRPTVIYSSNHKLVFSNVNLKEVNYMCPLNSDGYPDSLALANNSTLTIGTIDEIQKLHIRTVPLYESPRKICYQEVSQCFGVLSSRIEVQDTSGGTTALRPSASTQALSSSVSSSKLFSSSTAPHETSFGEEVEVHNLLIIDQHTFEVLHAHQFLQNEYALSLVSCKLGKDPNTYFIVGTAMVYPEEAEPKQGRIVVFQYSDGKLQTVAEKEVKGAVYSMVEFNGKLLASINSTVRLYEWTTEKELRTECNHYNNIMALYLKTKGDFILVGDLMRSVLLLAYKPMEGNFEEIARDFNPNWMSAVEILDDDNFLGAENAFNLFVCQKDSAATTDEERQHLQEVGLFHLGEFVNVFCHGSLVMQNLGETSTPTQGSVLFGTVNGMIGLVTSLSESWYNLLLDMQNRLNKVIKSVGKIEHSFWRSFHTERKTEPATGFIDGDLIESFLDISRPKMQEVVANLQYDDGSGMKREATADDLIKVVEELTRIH
smiles,measurement,value
"O=C1CCC(N2Cc3cc(N4CCN(c5ccccc5)C4=O)ccc3C2=O)C(=O)N1 (stereo not shown) [Compound 101, 3-(1-oxo-5-(2-oxo-3-phenylimidazolidin-1-yl)isoindolin-2-yl)piperidine-2,6-dione]","effect on CK1α levels (Western blot, FIG. 1)",no effect on CK1α levels

# — patent publication US20250115581A1, “SUBSTITUTED PIPERIDINES AS CK1A DEGRADERS” (Monte Rosa Therapeutics, Inc., priority 2022, published 2025)
